{"source": "patent EP2236511A2", "about": "“LIGANDS OF ALPHA-ADRENOCEPTORS AND OF DOPAMINE, HISTAMINE, IMIDAZOLINE AND SEROTONIN RECEPTORS AND THE USE THEREOF” (priority 2007, dated 2009)", "key": {"human D4.2 receptor": {"biological_target": "T1, human D4.2 receptor (Homo sapiens, UniProt P21917, DEL265-296)", "T1 construct": "expressed in transfected cells; host or cells: CHO-K1", "T1 sequence (P21917 with tags, fused parts or gaps DEL265-296)": "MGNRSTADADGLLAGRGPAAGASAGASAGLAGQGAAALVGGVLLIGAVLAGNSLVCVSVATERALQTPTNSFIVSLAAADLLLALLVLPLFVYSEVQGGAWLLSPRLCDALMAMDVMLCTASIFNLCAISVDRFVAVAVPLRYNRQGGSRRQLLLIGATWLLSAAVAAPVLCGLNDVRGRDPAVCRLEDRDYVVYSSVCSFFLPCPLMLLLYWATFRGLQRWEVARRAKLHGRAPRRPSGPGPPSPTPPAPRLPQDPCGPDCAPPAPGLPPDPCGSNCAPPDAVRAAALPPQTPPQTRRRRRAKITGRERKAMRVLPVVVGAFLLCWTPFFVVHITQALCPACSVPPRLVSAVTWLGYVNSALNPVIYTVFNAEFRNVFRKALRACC", "assay": "Radioligand binding to dopamine receptor D4.2 ([3H] Spiperone, CHO-K1 membranes)", "conditions": "read-out: Dopamine receptors, % inhibition D4.2", "protocol": "Screening of the disclosed compounds for potential ability to interact with dopamine receptor D4.2 is carried out by method of radioligand binding. […] From the cells transfected in this way membrane species are prepared by homogenization of these cells in glass homogenizer with the subsequent separation of plasmatic membranes from cell nuclei, mitochondrias and cell wreckages by differential centrifugation. […] After incubation samples are filtered in vacuo on glass-microfiber filters G/F (Millipor, USA), filters are washed three times with cold solution of medium and radioactivity is measured by scintillation counter MicroBeta 340 (Perkin Elmer, USA). Nonspecific binding which makes up 10% of the overall binding is determined by incubation of membrane species with radioligand in the presence of 10 µM of Haloperidol.\nSpiperone is used as positive control. Tested compounds' binding to the receptor is determined by their ability to displace radioligand and expressed in percent of displacement (%I). Values of %I are calculated according to the following equation: %I = (TA-CA)/(TA-NA)*100, [formula] wherein: TA - is overall radioactivity in the presence of radioligand only, CA - is radioactivity in the presence of radioligand and tested compound and NA - is radioactivity in the presence of radioligand and Haloperidol (10 µM)."}, "imidazoline receptor I2": {"system": "imidazoline receptor I2", "assay": "Radioligand binding to imidazoline receptor I2 ([3H] Idazoxan, rat brain membranes)", "conditions": "10 µM ligand", "protocol": "For this purpose membrane species are prepared from rat (Wistar) brain homogenates by homogenization of them in glass homogenizer with the subsequent separation of plasmatic membranes from cell nuclei, mitochondrias and cell wreckages by differential centrifugation. […] After incubation the samples are filtered in vacuo on glass-microfiber filters G/F (Millipor, USA), filters are washed three times with cold solution of medium and radioactivity is measured by scintillation counter MicroBeta 340 (Perkin Elmer, USA). […] Idazoxan is used as positive control.\nThe tested compounds' binding to the receptor is determined by their ability to displace the radioligand and expressed in percent of displacement (%I). Values of %I are calculated according to the following equation: %I = (TA-CA)/(TA-NA)*100, [formula] wherein: TA - is the overall radioactivity in the presence of radioligand only, CA - is the radioactivity in the presence of radioligand and tested compound and NA - is a radioactivity in the presence of radioligand and Idazoxan (1 µM)."}, "human D1 receptor": {"biological_target": "T2, human D1 receptor (Homo sapiens, UniProt P21728)", "T2 construct": "expressed in transfected cells; host or cells: CHO", "T2 sequence (P21728 whole entry)": "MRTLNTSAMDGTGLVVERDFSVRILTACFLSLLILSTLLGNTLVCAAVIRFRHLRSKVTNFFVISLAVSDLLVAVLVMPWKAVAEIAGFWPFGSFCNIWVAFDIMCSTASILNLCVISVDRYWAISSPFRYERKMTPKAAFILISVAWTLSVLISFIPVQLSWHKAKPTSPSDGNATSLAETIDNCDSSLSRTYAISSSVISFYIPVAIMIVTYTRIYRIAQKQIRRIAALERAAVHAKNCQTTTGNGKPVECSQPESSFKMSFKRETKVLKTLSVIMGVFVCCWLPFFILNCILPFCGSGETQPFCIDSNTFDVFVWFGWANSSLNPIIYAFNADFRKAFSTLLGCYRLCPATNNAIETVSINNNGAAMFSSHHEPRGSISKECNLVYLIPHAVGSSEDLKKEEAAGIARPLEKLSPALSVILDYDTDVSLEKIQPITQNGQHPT", "assay": "Radioligand binding to dopamine receptor D1 ([3H] SCH-23390, CHO membranes)", "conditions": "read-out: Dopamine receptors, % inhibition D1", "text": "For this purpose sDNA of human D1 receptor is expressed in CHO cells, as it was described in [Dearry A, Gingrich JA, Falardeau P, Fremeau RT Jr, Bates MD and Caron MG. Molecular cloning and expression of the gene for a human D1 dopamine receptor. Nature. […] Nature."}, "human D3 receptor": {"biological_target": "T3, human D3 receptor (Homo sapiens, UniProt P35462)", "T3 construct": "expressed in transfected cells; host or cells: CHO", "T3 sequence (P35462 whole entry)": "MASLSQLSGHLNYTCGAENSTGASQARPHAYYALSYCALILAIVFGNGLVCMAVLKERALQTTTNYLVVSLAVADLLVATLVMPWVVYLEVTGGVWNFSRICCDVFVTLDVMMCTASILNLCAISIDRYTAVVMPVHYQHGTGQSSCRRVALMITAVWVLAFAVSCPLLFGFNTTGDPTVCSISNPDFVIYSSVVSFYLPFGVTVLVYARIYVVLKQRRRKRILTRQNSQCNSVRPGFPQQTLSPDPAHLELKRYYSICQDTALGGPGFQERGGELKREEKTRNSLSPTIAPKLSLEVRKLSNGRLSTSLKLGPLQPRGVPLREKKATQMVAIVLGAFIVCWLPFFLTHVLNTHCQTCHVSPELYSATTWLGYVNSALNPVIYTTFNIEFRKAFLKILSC", "assay": "Radioligand binding to dopamine receptor D3 ([3H] Spiperone, CHO membranes)", "text": "For this purpose sDNA of human D3 receptor is expressed in CHO cells, as it was described in [Sokoloff P, Giros B, Martres M-P, Bouthenet M-L and Schwartz J-C. Molecular cloning and characterization of novel dopamine receptor (D3) as target for neuroleptics. Nature. […] Molecular cloning and characterization of novel dopamine receptor (D3) as target for neuroleptics. Nature. […] Spiperone is used as positive control."}, "male mice of BALB/c line [1]": {"system": "male mice of BALB/c line", "assay": "Passive Avoidance of mice in the Shuttle Chamber, memory disturbed by Scopolamine", "format": "in vivo", "conditions": "Scopolamine 0.3 mg/kg, injected 30 minutes before training; figures 1-3", "experimental": "Example 14. […] A shuttle chamber (Ugo Basile, Italy) consisted of two sections was used. […] The sections were connected through a hole which could be overlapped by a vertical door. The floor was made of transverse metal bars on which DC current impulses could be fed. Experiments were carried out in aged male mice of BALB/c line weighing 20-24 grams.\nEach group consisted of at least 8 animals. Animal was placed in light section, and latent period of the first entry into dark chamber was registered. Then the vertical door was closed and the animal was punished by 0.6 mA DC current for 3 seconds. After that it was taken back to its homecage. In 22-24 hours the same animal was placed again in light section of the shuttle chamber and latent period of its first entry into dark section, the total time of its stay in light section, and the number of entries into dark section, were registered. Each monitoring lasted for 5 minutes.\nTesting was carried out during the day time in isolated laboratory using white noise at level of about 70 decibel above human hearing threshold.\nScopolamine causes the disturbance of training (memory loss) that results in […]."}, "mice [2]": {"system": "mice", "assay": "Mice Training in Morris Water Maze (Scopolamine)", "format": "in vivo", "conditions": "unitary introduction of active ingredient; figures 10-13", "experimental": "Example 17. Mice Training in Morris Water Maze. A round pool which was filled with water at 20-22°C was used. A round ceramic platform of 14cm height was placed in the pool. Animals's behavior was registered with automated computer videosystem in combination with software package of movement analysis Any-maze (Stoelting Co., US). Before testing mice suitable for training were selected. That was done by placing the platform 1cm above the water level and putting an animal on the platform for 20 seconds. Then the mouse was sunk into the water on the opposite side of the pool, allowed to find the platform and climbed it […] 60 seconds, where it was left for additional 20 seconds. After that the mouse was repeatedly immersed into water on the opposite side of the pool and allowed to look for platform. If it failed in finding the platform within 60 seconds the experimentator helped it to find the platform and climb it. If the mice could not find the platform itself in two consecutive attempts it was excluded from experiment. During the next two days the platform was placed 0.5 centimeter lower the water level. Every day the mice were given four attempts for finding the platform within 60 seconds. The time interval between the attempts was 20 seconds, during which the mice stayed on the platform. Every day before the first attempt mouse was placed on the platform for 20 seconds. The time needed for finding and climbing the platform was registered. The animals were sunk in water in 3 different places on the side of the pool opposite to platform. On each day of two-day testing 35-40 minutes before the beginning of training the mice were injected intraintestinally with physiological solution, Scopolamine or Scopolamine in combination with investigated compound. At least 8 animals were used in each group. On the third day the platform was removed and each animal was placed one time in the pool for a period of 60 seconds. The time each mouse spent in the area where the platform had been located during the previous days was registered. This time interval was regarded as a measure of effectiveness of training fulfilled during the previous two days. The testing was carried out during the day time in isolated laboratory using \"white noise\" at level of about 70 decibel above the human hearing threshold."}, "mice [3]": {"system": "mice", "assay": "Tail suspension test", "format": "in vivo", "conditions": "dose of 0.05 mg/kg during 4 days; fig. 16", "experimental": "Example 20. Mice behavior in tail suspension test. In the test a mouse was suspended by tail with a sticky tape on the holder over horizontal surface at a height of 40 cm, and during 3 minutes the total time of complete immobility was recorded. Automated computerized detection of motion with videosystem and Any-maze programm were used. After administration of ligand 1.1.2(1-2) (CD-008-0045) in dose of 0.05 mg/kg during 4 days the time of complete immobility of mouse was lowered almost by factor of 2.5 (fig.16), that testifies the cutting of period of depressively-like condition."}, "male mice of BALB/c line [4]": {"system": "male mice of BALB/c line", "assay": "Mice Behavior in the Elevated Plus Maze", "format": "in vivo", "conditions": "doses of 0,05 and 0,1 mg/kg", "text": "Example 16. […] The length of each arm of the maze was 30cm, width is 5cm, and height of the walls was 15cm. Two opposite arms were closed from both sides and end faces by transparent walls, the other two arms were lit and opened. A mouse was placed in the center of the maze and for the next five minutes the number of entries into opened and closed arms and the time spent in each type of arms was registered. […] The animals usually avoided opened arms (the preference index is between 0.2 and 0.3). Compounds with tranquilizing action increased this index up to 0.5-0.6 or even more and reduced the number of defecations without changing the overall motion activity of the mice (the total number of their entries to the arms)."}, "recombinant human 5-HT1A": {"biological_target": "T4, recombinant human 5-HT1A (Homo sapiens, UniProt P08908)", "T4 construct": "expressed in transfected cells; host or cells: CHO", "T4 sequence (P08908 1-422)": "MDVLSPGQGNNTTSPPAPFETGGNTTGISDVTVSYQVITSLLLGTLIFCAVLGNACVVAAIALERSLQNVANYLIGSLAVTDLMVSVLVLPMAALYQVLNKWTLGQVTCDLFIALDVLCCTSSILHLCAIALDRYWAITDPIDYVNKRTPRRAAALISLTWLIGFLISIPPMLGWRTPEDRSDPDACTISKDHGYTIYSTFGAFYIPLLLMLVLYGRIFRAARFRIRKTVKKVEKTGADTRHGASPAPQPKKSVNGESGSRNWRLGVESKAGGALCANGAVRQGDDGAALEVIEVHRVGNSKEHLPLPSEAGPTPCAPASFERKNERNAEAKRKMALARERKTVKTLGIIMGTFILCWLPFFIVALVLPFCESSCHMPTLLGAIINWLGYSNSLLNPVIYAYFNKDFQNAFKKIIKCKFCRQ", "assay": "Radioligand binding to serotonin receptor 5-HT1A ([3H] 8-OH-DPAT, CHO membranes)", "conditions": "read-out: 5-HT1A % inhibition", "text": "J Pharmacol Exp Ther. 306(1): 301-309, 2003]. […] Metergoline is used as positive control."}, "[5]": {"biological_target": "T5, serotonin receptor 5-HT1B (Rattus norvegicus, UniProt P28564)", "T5 construct": "membrane species are prepared from rat brains (Wistar) by homogenization of species of rat brain-cortices; from tissue; host or cells: rat (Wistar) brain cortex", "T5 sequence (P28564 whole entry)": "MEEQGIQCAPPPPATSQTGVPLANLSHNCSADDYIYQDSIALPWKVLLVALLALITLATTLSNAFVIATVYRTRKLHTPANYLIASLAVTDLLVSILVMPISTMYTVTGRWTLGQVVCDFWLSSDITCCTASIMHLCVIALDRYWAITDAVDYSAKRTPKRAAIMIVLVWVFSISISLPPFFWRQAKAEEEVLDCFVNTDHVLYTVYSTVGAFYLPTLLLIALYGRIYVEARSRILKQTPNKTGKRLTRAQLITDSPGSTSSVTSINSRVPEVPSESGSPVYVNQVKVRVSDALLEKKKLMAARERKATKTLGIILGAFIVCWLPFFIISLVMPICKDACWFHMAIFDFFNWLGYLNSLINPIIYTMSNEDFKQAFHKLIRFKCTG", "assay": "Radioligand binding to serotonin receptor 5-HT1B ([125I] cyanopindolol, rat brain cortex membranes)", "conditions": "read-out: 5-HT1B % inhibition", "text": "Serotonin is used as positive control."}, "[6]": {"biological_target": "T6, recombinant human 5-HT2A receptor (Homo sapiens, UniProt P28223)", "T6 construct": "expressed in transfected cells; host or cells: CHO-K1", "T6 sequence (P28223 whole entry)": "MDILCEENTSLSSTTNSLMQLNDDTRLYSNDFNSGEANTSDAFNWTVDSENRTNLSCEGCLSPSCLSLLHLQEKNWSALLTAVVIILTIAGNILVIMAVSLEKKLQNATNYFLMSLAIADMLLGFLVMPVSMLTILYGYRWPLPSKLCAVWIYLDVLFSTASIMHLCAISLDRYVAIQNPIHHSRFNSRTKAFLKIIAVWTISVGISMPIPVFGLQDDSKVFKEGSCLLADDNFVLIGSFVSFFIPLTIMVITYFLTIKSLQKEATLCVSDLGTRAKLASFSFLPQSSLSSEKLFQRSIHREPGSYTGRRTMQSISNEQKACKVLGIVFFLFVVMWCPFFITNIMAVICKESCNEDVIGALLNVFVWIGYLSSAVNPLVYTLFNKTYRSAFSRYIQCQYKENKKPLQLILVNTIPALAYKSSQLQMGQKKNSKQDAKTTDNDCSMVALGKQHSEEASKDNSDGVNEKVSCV", "assay": "Radioligand binding to serotonin receptor 5-HT2A ([3H] Ketanserin, CHO-K1 membranes)", "conditions": "10 µM ligand", "text": "9-C. […] J Neurochem. […] Ketanserin is used as positive control."}, "[7]": {"biological_target": "T7, recombinant human 5-HT2B receptor (Homo sapiens, UniProt P41595)", "T7 construct": "expressed in transfected cells; host or cells: CHO-K1", "T7 sequence (P41595 whole entry)": "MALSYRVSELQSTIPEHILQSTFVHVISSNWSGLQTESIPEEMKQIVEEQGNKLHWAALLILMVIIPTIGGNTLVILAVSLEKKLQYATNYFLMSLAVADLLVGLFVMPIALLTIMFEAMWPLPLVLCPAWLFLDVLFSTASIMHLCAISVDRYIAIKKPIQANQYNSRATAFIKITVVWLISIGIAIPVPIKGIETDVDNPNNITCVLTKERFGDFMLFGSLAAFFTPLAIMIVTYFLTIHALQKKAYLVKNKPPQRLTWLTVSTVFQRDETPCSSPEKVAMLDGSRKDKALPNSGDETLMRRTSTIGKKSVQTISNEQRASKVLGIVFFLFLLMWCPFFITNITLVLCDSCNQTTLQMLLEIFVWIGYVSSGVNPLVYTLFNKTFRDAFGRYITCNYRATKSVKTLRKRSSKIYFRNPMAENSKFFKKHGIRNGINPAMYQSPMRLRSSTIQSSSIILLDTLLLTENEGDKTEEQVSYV", "assay": "Radioligand binding to serotonin receptor 5-HT2B ([3H] Lysergic acid diethylamide, CHO-K1 membranes)", "conditions": "read-out: 5-HT2B % inhibition", "protocol": "For this purpose membrane species are prepared from CHO-K1 cells comprising recombinant human 5-HT2B receptor by homogenization of recombinant cells in glass homogenizer with the subsequent separation of plasmatic membranes from cell nuclei, mitochondrias and cell wreckages by differential centrifugation. […] After incubation the samples are filtered in vacuo on glass-microfiber filters G/F (Millipor, USA), filters are washed three times with cold solution of medium and radioactivity is measured by scintillation counter MicroBeta 340 (Perkin Elmer, USA). […] Ketanserin is used as positive control. The tested compounds' binding to the receptor is determined by their ability to displace the radioligand and is expressed in percent of displacement (%I). Values of %I are calculated according to the following equation: %I = (TA-CA)/(TA-NA)*100, [formula] wherein: TA - is the overall radioactivity in the presence of radioligand only, CA - is the radioactivity in the presence of radioligand and tested compound and NA - is the radioactivity in the presence of radioligand and Serotonin (10 µM)."}, "[8]": {"biological_target": "T8, recombinant human 5-HT6 receptor (Homo sapiens, UniProt P50406)", "T8 construct": "expressed in transfected cells; host or cells: HeLa", "T8 sequence (P50406 whole entry)": "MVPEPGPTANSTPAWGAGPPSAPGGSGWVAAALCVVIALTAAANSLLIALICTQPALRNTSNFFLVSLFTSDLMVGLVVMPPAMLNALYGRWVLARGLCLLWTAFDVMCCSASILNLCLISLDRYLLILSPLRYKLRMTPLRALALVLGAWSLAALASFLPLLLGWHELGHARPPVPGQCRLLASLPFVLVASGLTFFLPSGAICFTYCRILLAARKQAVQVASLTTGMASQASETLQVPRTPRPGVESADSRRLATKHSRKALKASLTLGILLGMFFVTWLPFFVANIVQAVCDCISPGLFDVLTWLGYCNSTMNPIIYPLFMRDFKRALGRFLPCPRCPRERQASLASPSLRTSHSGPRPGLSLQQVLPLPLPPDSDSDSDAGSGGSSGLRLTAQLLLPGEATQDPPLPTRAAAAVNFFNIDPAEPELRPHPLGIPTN", "assay": "Radioligand binding to serotonin receptor 5-HT6 ([3H] Lysergic acid diethylamide, HeLa membranes)", "conditions": "read-out: 5-HT6 % inhibition", "text": "Mol Pharmacol. 43:320-327, 1993]. […] Methiothepin is used as positive control."}}}
{"smiles": "Cc1ccc2c(c1)[C@H]1CN(C)CCC[C@@H]1N2CCc1ccc(C)nc1", "note": "(relative stereo) [1.6.2(11)]", "values": [{"measurement": "inhibition at 10 µM", "setting": "human D4.2 receptor", "result": 6, "unit": "%"}, {"measurement": "% inhibition", "setting": "imidazoline receptor I2", "result": 83, "unit": "%"}]}
{"smiles": "Cc1ccc2c(c1)c1c(n2CCc2ccccc2)CCN(C)C1", "note": "[1.1.2(1-2) ·2HCl]", "values": [{"measurement": "inhibition at 10 µM", "setting": "human D1 receptor", "result": 89, "unit": "%"}, {"measurement": "IC50", "setting": "human D3 receptor", "result": 0.256, "unit": "µM"}, {"measurement": "Ki", "setting": "human D3 receptor; Receptor D3", "result": 0.868, "unit": "µM"}, {"measurement": "nH", "setting": "human D3 receptor; Receptor D3", "result": 0.797}, {"measurement": "inhibition at 10 µM", "setting": "human D3 receptor; read-out: Dopamine receptors, % inhibition D3", "result": 99, "unit": "%"}, {"measurement": "inhibition at 10 µM", "setting": "human D4.2 receptor", "result": 103, "unit": "%"}]}
{"smiles": "Cc1ccc2c(c1)c1c(n2CCc2ccccc2)CCN(C)C1", "note": "[1.1.2(1-2), 2,8-dimethyl-5-phenethyl-1,2,3,4-tetrahydro-1H-pyrido[4,3-b]indole]", "values": [{"measurement": "enhancement of memory disturbed by Scopolamine", "setting": "male mice of BALB/c line [1]", "result": "improve memory"}, {"measurement": "memory disorders caused by Scopolamine (time spent in area of the platform)", "setting": "mice [2]", "result": "decreasing memory disorders"}, {"measurement": "time of complete immobility, lowered by factor", "setting": "mice [3]", "result": "~2.5"}]}
{"smiles": "Cc1ccc2c(c1)c1c(n2CCc2ccc(C)nc2)CCN(C)C1.Cl.Cl", "note": "[1.1.2(4-2)]", "values": [{"measurement": "enhancement of memory disturbed by Scopolamine", "setting": "male mice of BALB/c line [1]", "result": "improve memory"}, {"measurement": "Anxiolytic (tranquilizing) action", "setting": "male mice of BALB/c line [4]", "result": "exhibit analogous action"}, {"measurement": "memory disorders caused by Scopolamine (time spent in area of the platform)", "setting": "mice [2]", "result": "decreasing memory disorders"}]}
{"smiles": "Cc1ccc2c(c1)c1c(n2CCc2ccncc2)CCN(C)C1", "note": "[1.1.2(5-2)·2HCl]", "values": [{"measurement": "inhibition at 10 µM", "setting": "recombinant human 5-HT1A", "result": 17, "unit": "%"}, {"measurement": "inhibition at 10 µM", "setting": "[5]", "result": 14, "unit": "%"}, {"measurement": "inhibition at 10 µM", "setting": "[6]", "result": 88, "unit": "%"}, {"measurement": "inhibition at 10 µM", "setting": "[7]", "result": 80, "unit": "%"}, {"measurement": "inhibition at 10 µM", "setting": "[8]", "result": 91, "unit": "%"}, {"measurement": "enhancement of memory disturbed by Scopolamine", "setting": "male mice of BALB/c line [1]", "result": "improve memory"}]}
{"smiles": "Cc1ccc2c(c1)c1c(n2CCc2ccncc2)CCCN(C)C1", "note": "[1.2.2(5-3)·2HCl]", "values": [{"measurement": "memory disorders caused by Scopolamine (time spent in area of the platform)", "setting": "mice [2]", "result": "decreasing memory disorders"}]}
